Source: US20250177566A1, “USE OF CHEMICAL EPIGENETIC MODIFIERS TO MODULATE GENE EXPRESSION” (The University of North Carolina at Chapel Hill, priority 2022, published 2025)
Like-named read-outs stand apart in the source and are kept apart here.

How the values were obtained:
TRE3G-GFP reporter gene [1] = details: WT FKBP (MS2-FKBPx2), 48 hrs
Experimental: HCT116 cells were transfected with TRE3G-GFP, dCas9, MS2-FKPB*x2, and TRE3G gRNA or NT gRNA. After 48 hrs of 10 nM SLF*-CEMa treatment, flow cytometry was performed and mean fluorescent value was collected. […] TRE3G-GFP, dCas9, MS2-FKBP*2, TRE3G gRNA or NT gRNA were transfected into HCT116 cells. The media was changed to media with 5 nM CEM207 together with 0 nM, 50 nM, 500 nM or 5000 nM of AP1867, respectively. After 48 hrs chemical exposure, flow cytometry was performed and the mean fluorescent value was measured in each group of cells. […] FIGS. 5D and 5E are dose curves of CEMa molecules activating the GFP reporter gene in HCT116 cells using WT FKBP and dCas9 as DNA binding module. HCT116 cells were transfected with dCas9, MS2-FKBPx2, TRE3G-GFP constructs, along with TRE3G gRNA or NT gRNA. Cells were treated with different concentrations of CEMa molecules for 48 hrs before flow cytometry was conducted. […] Error bars represent the standard deviation.
To better understand the activity of SLF*-CEMa in the WT FKBP-based GFP reporter assay, a similar dose-response assay was conducted in HCT116 cells transfected with dCas9 and MS2-FKBPx2 (FIGS. 1D and 1E).
Flow cytometry. All flow cytometry experiments were performed with Attune Nxt as previously described. […] Significance was determined by Student's t-test.

TRE3G-GFP reporter gene [2] = assay: TRE3G-GFP reporter gene activation in HCT116, dCas9 + MS2-FKBP*x2 (F36V) system, flow cytometry; assay type: cell-based, human; parameters: fold change, GFP: reference not given here; details: for fold change, GFP (Treated vs Non-Treated): FIG. 1E, 48 hours; for fold change, GFP: 48 hrs
CXCR4 = CXCR4 mRNA activation in HCT116 stably expressing dCas9 and MS2-FKBP*x2, qRT-PCR; assay type: cell-based, human; details: FIG. 2C; 5 nM; 48 hrs
Experimental: To further explore the activation potential of the SLF*-CEMa, their ability to target endogenous genes was evaluated (FIGS. 2A and 2B). Lentivirus was used to establish a stable HCT116 cell line expressing dCas9 and MS2-FKBP*x2 constructs, selecting for cells with antibiotic resistance. […] All CEMs were screened for their ability to activate the CXCR4 gene at 5 nM (FIG. 2C). RNA extraction and quantitative RT-PCR (qRT-PCR) were performed after 48 hours of CEM treatment.
To determine the optimal treatment concentration of the SLF*-CEMa molecules in this context, HCT116 cells were treated with 1 nM, 5 nM, 25 nM, and 50 nM of CEM203, CEM207, or CEM87. […] After 48 hours, RNA extraction followed by qRT-PCR was performed to evaluate the change in mRNA expression of CXCR4 (FIG. 2D). […] To directly compare this induced activation to other CRISPR-Cas9-based epigenetic activators, dCas9-VPR and dCas9-p300 constructs were virally infected into HCT116 cells and CXCR4 activation assessed in a similar fashion (FIGS. 2A and 2B).
To determine the time at which SLF*-CEMa most effectively induces gene activation, CXCR4 gene expression changes over time were investigated in dCas9 and MS2-FKBP*x2 stably infected HCT116 cells. Cells were treated with either vehicle, […] (FIG. 3A). RNA extraction and qRT-PCR were performed at 12, 24, 48, 72, and 96 hrs time points (FIG. 3B).
To investigate if endogenous gene activation triggered by the SLF*-CEMa compounds is also reversible, HCT116 cells were treated with CEM203 (50 nM) or CEM207 (25 nM) for 24 hours after transfecting CXCR4 gRNA, and then the CEMs were removed by media exchange at various time points. […] Likewise, it was investigated whether treatment with excess AP1867 could further reverse gene activation, potentially in a more robust fashion than with washout alone if there is any remaining intracellular SLF*-CEMa. To test this, after 24 hours of SLF*-CEMa treatment, a media exchange containing 20 μM AP1867 was performed (FIGS. 3C and 3D).
RNA extraction and qRT-PCR. All RNA extraction experiments were conducted in 12-well plate format. Culturing medium was removed, and cells were washed with 1×PBS, following with 0.05% trypsin to disassociate. After being quenched by medium and centrifuged, cells were washed with 1×PBS, and the RNA extraction was performed by using RNeasy Plus Mini kit (Qiagen, 74134). RT-qPCR was conducted by using RNA-to CT 1-step kit (Thermo Fisher Scientific, 4389986). The primer sets used in quantifying each gene can be found in Table 4.

CC[C@H](C(=O)N1CCCC[C@H]1C(=O)O[C@H](CCc1ccc(OC)c(OC)c1)c1cccc(OCC(=O)NCCOCCOCCOCCNC(=O)C[C@@H]2N=C(c3ccc(Cl)cc3)c3cc(OC)ccc3-n3c(C)nnc32)c1)c1cc(OC)c(OC)c(OC)c1 [CEM202, (1R)-1-(3-((17-((4S)-6-(4-Chlorophenyl)-8-methoxy-1-methyl-4/I-benzo[f][1,2,4]triazolo[4,3-a][1,4]diazepin-4-yl)-2,16-dioxo-6,9,12-trioxa-3,15-diazaheptadecyl)oxy)phenyl)-3-(3,4-dimethoxyphenyl) propyl (2S)-1-((S)-2-(3,4,5-trimethoxyphenyl)butanoyl) piperidine-2-carboxylate]
fold change, GFP (Treated vs Non-Treated) (TRE3G-GFP reporter gene [1]; FIG. 5D, 10 nM): 0.9 fold
fold change, GFP (Treated vs Non-Treated) (TRE3G-GFP reporter gene [1]; FIG. 5D, 25 nM): 1.0 fold
fold change, GFP (Treated vs Non-Treated) (TRE3G-GFP reporter gene [1]; FIG. 5D, 50 nM): 1.1 fold
fold change, GFP (Treated vs Non-Treated) (TRE3G-GFP reporter gene [1]; FIG. 5D, 100 nM): 5.3 fold
fold change, GFP (Treated vs Non-Treated) (TRE3G-GFP reporter gene [1]; FIG. 5D, 200 nM): 11.6 fold
fold change, GFP (Treated vs Non-Treated) (TRE3G-GFP reporter gene [1]; FIG. 5D, 400 nM): 17.5 fold
fold change, GFP (Treated vs Non-Treated) (TRE3G-GFP reporter gene [1]; FIG. 5E, 10 nM): 0.9 fold
fold change, GFP (Treated vs Non-Treated) (TRE3G-GFP reporter gene [1]; FIG. 5E, 25 nM): 0.9 fold
fold change, GFP (Treated vs Non-Treated) (TRE3G-GFP reporter gene [1]; FIG. 5E, 50 nM): 1.0 fold
fold change, GFP (Treated vs Non-Treated) (TRE3G-GFP reporter gene [1]; FIG. 5E, 100 nM): 1.0 fold
fold change, GFP (Treated vs Non-Treated) (TRE3G-GFP reporter gene [1]; FIG. 5E, 200 nM): 1.0 fold
fold change, GFP (Treated vs Non-Treated) (TRE3G-GFP reporter gene [1]; FIG. 5E, 400 nM): 1.0 fold
fold change, GFP (Treated vs Non-Treated) (TRE3G-GFP reporter gene [2]; TRE3G gRNA, 0.25 nM): 1.1 fold
fold change, GFP (Treated vs Non-Treated) (TRE3G-GFP reporter gene [2]; TRE3G gRNA, 0.5 nM): 1.3 fold
fold change, GFP (Treated vs Non-Treated) (TRE3G-GFP reporter gene [2]; TRE3G gRNA, 0.75 nM): 1.3 fold
fold change, GFP (Treated vs Non-Treated) (TRE3G-GFP reporter gene [2]; TRE3G gRNA, 1 nM): 1.5 fold
fold change, GFP (Treated vs Non-Treated) (TRE3G-GFP reporter gene [2]; TRE3G gRNA, 2.5 nM): 2.8 fold
fold change, GFP (Treated vs Non-Treated) (TRE3G-GFP reporter gene [2]; TRE3G gRNA, 5 nM): 12.5 fold
fold change, GFP (Treated vs Non-Treated) (TRE3G-GFP reporter gene [2]; TRE3G gRNA, 7.5 nM): 13.9 fold
fold change, GFP (Treated vs Non-Treated) (TRE3G-GFP reporter gene [2]; TRE3G gRNA, 10 nM): 15.0 fold
fold change, GFP (Treated vs Non-Treated) (TRE3G-GFP reporter gene [2]; TRE3G gRNA, 25 nM): 22.0 fold
fold change, GFP (Treated vs Non-Treated) (TRE3G-GFP reporter gene [2]; TRE3G gRNA, 50 nM): 28.8 fold
fold change, GFP (Treated vs Non-Treated) (TRE3G-GFP reporter gene [2]; TRE3G gRNA, 75 nM): 27.1 fold
fold change, GFP (Treated vs Non-Treated) (TRE3G-GFP reporter gene [2]; TRE3G gRNA, 100 nM): 25.5 fold
fold change, GFP (TRE3G-GFP reporter gene [2]; FIG. 5A, NT gRNA, 10 nM): 0.5 fold
fold change, GFP (TRE3G-GFP reporter gene [2]; FIG. 5A, TRE3G gRNA, 10 nM): 8.4 fold
fold change, GFP (TRE3G-GFP reporter gene [2]; FIG. 5C, NT gRNA, 0.25 nM): 1.0 fold
fold change, GFP (TRE3G-GFP reporter gene [2]; FIG. 5C, NT gRNA, 0.5 nM): 1.0 fold
fold change, GFP (TRE3G-GFP reporter gene [2]; FIG. 5C, NT gRNA, 0.75 nM): 1.1 fold
fold change, GFP (TRE3G-GFP reporter gene [2]; FIG. 5C, NT gRNA, 1 nM): 1.0 fold
fold change, GFP (TRE3G-GFP reporter gene [2]; FIG. 5C, NT gRNA, 2.5 nM): 1.0 fold
fold change, GFP (TRE3G-GFP reporter gene [2]; FIG. 5C, NT gRNA, 5 nM): 1.1 fold
fold change, GFP (TRE3G-GFP reporter gene [2]; FIG. 5C, NT gRNA, 7.5 nM): 1.1 fold
fold change, GFP (TRE3G-GFP reporter gene [2]; FIG. 5C, NT gRNA, 10 nM): 1.2 fold
fold change, GFP (TRE3G-GFP reporter gene [2]; FIG. 5C, NT gRNA, 25 nM): 1.3 fold
fold change, GFP (TRE3G-GFP reporter gene [2]; FIG. 5C, NT gRNA, 50 nM): 1.4 fold
fold change, GFP (TRE3G-GFP reporter gene [2]; FIG. 5C, NT gRNA, 75 nM): 1.4 fold
fold change, GFP (TRE3G-GFP reporter gene [2]; FIG. 5C, NT gRNA, 100 nM): 1.4 fold
fold change, CXCR4 mRNA (Treated vs Non-Treated) (CXCR4): 3.5 fold

CC[C@H](C(=O)N1CCCC[C@H]1C(=O)O[C@H](CCc1ccc(OC)c(OC)c1)c1cccc(OCC(=O)NCCOCCOCCOCCOCCOCCOCCNC(=O)C[C@@H]2N=C(c3ccc(Cl)cc3)c3cc(OC)ccc3-n3c(C)nnc32)c1)c1cc(OC)c(OC)c(OC)c1 [CEM205, (1R)-1-(3-((26-((4S)-6-(4-Chlorophenyl)-8-methoxy-1-methyl-4H-benzo[f][1,2,4]triazolo[4,3-a][1,4]diazepin-4-yl)-2,25-dioxo-6,9,12,15,18,21-hexaoxa-3,24-diazahexacosyl)oxy)phenyl)-3-(3,4-dimethoxyphenyl) propyl (2S)-1-((S)-2-(3,4,5-trimethoxyphenyl)butanoyl) piperidine-2-carboxylate]
fold change, GFP (TRE3G-GFP reporter gene [2]; FIG. 5A, NT gRNA, 10 nM): 0.4 fold
fold change, GFP (TRE3G-GFP reporter gene [2]; FIG. 5A, TRE3G gRNA, 10 nM): 6.9 fold
fold change, CXCR4 mRNA (Treated vs Non-Treated) (CXCR4): 8.8 fold

CC[C@H](C(=O)N1CCCC[C@H]1C(=O)O[C@H](CCc1ccc(OC)c(OC)c1)c1cccc(OCC(=O)NCCOCCOCCOCCOCCOCCOCCOCCNC(=O)C[C@@H]2N=C(c3ccc(Cl)cc3)c3cc(OC)ccc3-n3c(C)nnc32)c1)c1cc(OC)c(OC)c(OC)c1 [CEM206, (1R)-1-(3-((29-((4S)-6-(4-Chlorophenyl)-8-methoxy-1-methyl-4H-benzo[f][1,2,4]triazolo[4,3-a][1,4]diazepin-4-yl)-2,28-dioxo-6,9,12,15,18,21,24-heptaoxa-3,27-diazanonacosyl)oxy)phenyl)-3-(3,4-dimethoxyphenyl) propyl (2S)-1-((S)-2-(3,4,5-trimethoxyphenyl)butanoyl) piperidine-2-carboxylate]
fold change, GFP (TRE3G-GFP reporter gene [2]; FIG. 5A, NT gRNA, 10 nM): 0.3 fold
fold change, GFP (TRE3G-GFP reporter gene [2]; FIG. 5A, TRE3G gRNA, 10 nM): 8.5 fold
fold change, CXCR4 mRNA (Treated vs Non-Treated) (CXCR4): 13.9 fold
